Reference: US20250051391A1, “PEPTIDE INHIBITORS AND METHODS FOR INHIBITING PROTEIN AGGREGATION IN NEURONS AND NEURODEGENERATIVE DISEASES” (THE GOVERNING COUNCIL OF THE UNIVERSITY OF TORONTO, priority 2021, published 2025)
Ends that are not written are not given here.

Key:
[1] = test system: HEK293 cells overexpressing WT or A53T a-syn; assay: Cell Titer-Glo cell viability assay in a-syn expressing cells; assay type: cell-based, human; settings: for cell viability / cytoprotective effect: HEK293 cells overexpressing WT or A53T a-syn, with or without MG132, expressed GFP-peptide or protein
Procedure: Oligonucleotides encoding the specific peptides were synthesized and individually cloned into the pLJM1 nGFP lentiviral vector. Cells were infected with individual constructs, and cell viability was assessed using Cell Titer-Glo Luminescent assay (Promega) at 72 h post infection.
Cells were trypsinized from subconfluent cultures as described earlier, suspended in culture media, and then seeded into triplicate wells of a 96-well plate (100 μl well/1) at a density of 1.5×10^4 cells per well at standard culture conditions of 5% CO2 in air at 37° C. Cells were infected with lentivirus expressing peptide at an MOI of 5 for 72 h or transfected with plasmid for 72 h. Cell Titer-Glo reagent was added to each well (30 μL), according to the manufacturer's protocol and […].

WT a-syn oligomers = assay: Split luciferase a-syn oligomer/aggregation assay; assay type: cell-based, human; settings: cells stably expressing split luciferase WT a-syn constructs; GFP-peptide plasmids
Procedure: tet-off cells stably expressing split luciferase a-syn constructs were trypsinized from subconfluent culture and seeded in a 96-well plate at a density of 15,000 cells per well. Cells were incubated overnight at 37° C. in 5% CO2. […] After 6 h of incubation, 20 μL of cell medium was transferred to a black flat-bottomed 96-well plate. 50 μL of Working solution (Pierce Gaussia-Firefly Luciferase Dual Assay Kit, Thermo Scientific #16181) was added into each well containing cell medium. Immediately after adding the reagent, samples were read using a luminometer with a 480 nm filter.

Flag-CHMP2B = target: T1, Flag-CHMP2B (Homo sapiens, UniProt Q9UQN3); assay: Flag co-immunoprecipitation of GFP-peptides with Flag-CHMP2B; assay type: binding; settings: GFP-tagged peptides in HEK293T cells
T1 construct: expressed in transfected cells; host or cells: HEK293T
Procedure: (§1) HEK293T cells were co-transfected with Flag-tagged target protein, HA-tagged source protein, and GFP-tagged peptide or GFP. Cells were lysed 48 h after transfections with radioimmune precipitation assay buffer (50 mM Tris-HCl pH7.4, 1% Nonidet P-40, 150 mM NaCl, 1 mM EDTA, 10 mM Na3VO4, 10 mM sodium pyrophosphate, 25 mM NaF, 1× protease inhibitor mixture (Sigma)) for 30 min at 4° C. and coimmunoprecipitated with Flag beads (Clontech). The resulting immunocomplexes were analyzed by immunoblot using the appropriate antibodies. Protein samples were separated using 4-20% Mini-PROTEAN Tris-glycine gels (Bio-Rad) transferred to PVDF membranes and blocked in 5% milk containing PBS-Tween-20 (0.1%) for 1 h. PVDF membranes were then incubated with specified primary antibodies followed by incubation with horseradish peroxidase-conjugated secondary antibodies (Santa Cruz Biotechnology) and detected using enhanced chemiluminescence (GE Healthcare).

a-syn-CHMP2B interaction = target: T2, a-syn-CHMP2B interaction (Homo sapiens, UniProt Q9UQN3); assay: Co-immunoprecipitation: disruption of CHMP2B-A53T a-syn interaction; assay type: cell-based; settings: HEK293 cells; Flag-CHMP2B, HA-tagged A53T a-syn, GFP-tagged peptides
T2 construct: expressed in transfected cells; host or cells: HEK293T
Procedure: as §1

A53T a-syn = assay: a-syn protein levels by immunoblot in HEK293 cells; assay type: cell-based, human; settings: HEK293 cells expressing A53T a-syn
Procedure: Infected or transfected cells were scraped from 6-well dishes and lysed with lysis buffer (50 mM Tris-HCl pH7.4, 1% Nonidet P-40, 150 mM NaCl, 1 mM EDTA, 1× protease inhibitor mixture (Sigma)) for 30 min at 4° C. The insoluble pellet was removed following a 10,000 rpm spin for 5 minutes at 4° C. Lysates were analyzed by SDS-PAGE/immunoblot using 4-20% Mini-PROTEAN Tris-glycine gels (Bio-Rad) transferred to PVDF membranes and blocked in 5% milk containing PBS-Tween-20 (0.1%) for 1 h. PVDF membranes were then incubated with specified primary antibodies followed by incubation with horseradish peroxidase-conjugated secondary antibodies (Santa Cruz Biotechnology) and detected using enhanced chemiluminescence (GE Healthcare).

T1 sequence (Q9UQN3 whole entry): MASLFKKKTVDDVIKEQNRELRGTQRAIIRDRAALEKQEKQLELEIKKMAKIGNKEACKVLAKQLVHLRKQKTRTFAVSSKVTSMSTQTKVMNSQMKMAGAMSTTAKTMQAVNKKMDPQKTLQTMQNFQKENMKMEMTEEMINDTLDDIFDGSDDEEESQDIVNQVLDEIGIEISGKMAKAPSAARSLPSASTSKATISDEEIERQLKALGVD
T2 sequence (Q9UQN3 whole entry): as above

DEEIERQLKALG [PDpep1.3]
cell viability / cytoprotective effect [1]: most prominent effects on cell survival | effect on cell viability under p62 knockdown ([1]; HEK293 cells stably expressing p62 shRNA): not significantly affected | cytoprotective effect under shRNA knockdown of CHMP2B, VPS4A and/or VPS4B ([1]; cells stably expressing shRNAs): prevented by CHMP2B knockdown, but not by knockdown of VPS4A and/or VPS4B | a-syn oligomers measured by luciferase activity (WT a-syn oligomers): most prominent effects | interaction with Flag-CHMP2B (co-immunoprecipitation) (Flag-CHMP2B): interacted with Flag-CHMP2B | interaction with Flag-CHMP2B (co-immunoprecipitation) (Flag-CHMP2B; listed as Pdpep1.3): binds to CHMP2B | disruption of a-syn-CHMP2B interaction (co-immunoprecipitation) (a-syn-CHMP2B interaction): most prominent disruption | a-syn protein levels by immunoblot (A53T a-syn): reduction in a-syn levels

IPIQLKA [PDpep1, top hit of all screens; maps to CHMP2B residues 203-209]
cell viability / cytoprotective effect [1]: cytoprotective effects | a-syn oligomers measured by luciferase activity (WT a-syn oligomers): reduce WT a-syn oligomers | interaction with Flag-CHMP2B (co-immunoprecipitation) (Flag-CHMP2B): interacted with Flag-CHMP2B | disruption of a-syn-CHMP2B interaction (co-immunoprecipitation) (a-syn-CHMP2B interaction): disrupted the a-syn-CHMP2B interaction | a-syn protein levels by immunoblot (A53T a-syn): reduction in a-syn levels
